Data reported in patent EP4603105A1, “PHARMACEUTICAL COMPOSITION CONTAINING CYCLIC COMPOUND HAVING SELECTIVE KRAS INHIBITORY EFFECT AGAINST HRAS AND NRAS” (CHUGAI SEIYAKU KABUSHIKI KAISHA, priority 2022, dated 2024).

Columns and labels:
[1] = biological target: GDP-bound NRAS wild-type protein (Homo sapiens, UniProt P01111); assay: Binding to NRAS by surface plasmon resonance (SPR), KD and KD ratio to KRAS; conditions: ratio of KD for GDP-bound NRAS wild-type protein to KD for KRAS
Outline: (§1)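 Captured GDP-RAS (~100–300 RU) was exposed to increasing compound concentrations, 75 s per step, in running buffer with 10 µM GDP, 10 mM MgCl2 and 4% DMSO at pH 7.4.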

[2] = biological target: GDP-bound KRAS wild-type protein (Homo sapiens, UniProt P01116); assay: Binding to KRAS by surface plasmon resonance (SPR), dissociation constant KD; conditions: Single Cycle Kinetics
Outline: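 Each cycle, GDP-bound biotin-Avi RAS was captured (~100–300 RU), compound concentrations were injected low to high for 75 s each at 100 µL/min, then the chip was regenerated. Buffer: HBS pH 7.4, 10 mM MgCl2, 10 µM GDP, 1 mM DTT, 4% DMSO; 30°C. KD from a 1:1 binding model.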

[3] = system: human lung cancer strain NCI-H441; assay: NCI-H441 cell proliferation inhibitory activity (CellTiter-Glo, 4 days); assay type: cell-based; conditions: NCI-H441 cells, 4 days, read-out: NCl-H441 IC50
Outline: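 Step one: dispense the test compound in serial DMSO dilutions. Step three: add the reagent and measure […].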

HRAS wild-type protein = HRAS wild-type protein (Homo sapiens, UniProt P01112); assay: Binding to HRAS by surface plasmon resonance (SPR), KD and KD ratio to KRAS; conditions: ratio of KD for HRAS wild-type protein to KD for KRAS
Outline: as §1

Chain of GDP-bound KRAS wild-type protein (P01116 1-188 isoform P01116-2): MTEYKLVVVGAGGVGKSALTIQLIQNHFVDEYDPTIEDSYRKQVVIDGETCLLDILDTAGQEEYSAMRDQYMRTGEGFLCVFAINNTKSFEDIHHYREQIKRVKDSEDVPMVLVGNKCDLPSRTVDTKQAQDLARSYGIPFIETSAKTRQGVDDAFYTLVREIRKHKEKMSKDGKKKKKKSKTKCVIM
Chain of HRAS wild-type protein (P01112 whole entry): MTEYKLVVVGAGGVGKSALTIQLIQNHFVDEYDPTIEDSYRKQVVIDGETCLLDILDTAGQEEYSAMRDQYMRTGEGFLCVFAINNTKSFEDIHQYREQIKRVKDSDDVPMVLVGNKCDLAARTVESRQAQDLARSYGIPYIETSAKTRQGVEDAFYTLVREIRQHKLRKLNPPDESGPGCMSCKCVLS
Chain of GDP-bound NRAS wild-type protein (P01111 whole entry): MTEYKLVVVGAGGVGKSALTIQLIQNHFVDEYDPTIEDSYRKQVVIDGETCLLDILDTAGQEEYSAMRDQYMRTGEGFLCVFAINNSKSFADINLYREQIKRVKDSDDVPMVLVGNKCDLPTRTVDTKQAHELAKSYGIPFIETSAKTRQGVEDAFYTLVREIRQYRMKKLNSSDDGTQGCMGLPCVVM

| Structure (SMILES) | NRAS /KRAS [1] | Kd [2] | IC50 [3] | HRAS /KRAS (HRAS wild-type protein) |
| --- | --- | --- | --- | --- |
| CCO[C@@H]1C[C@H]2C(=O)NC3(CCCC3)C(=O)N(C)[C@@H](C3CCC3)C(=O)N(C)[C@H](C(=O)N(C)C)CC(=O)N(C)[C@@H](CC(C)C)C(=O)N[C@@H]([C@@H](C)CC)C(=O)N(C)CC(=O)N(C)[C@H]3C/C(F)=C\CCN(C3=O)[C@@H](Cc3ccc(C)cc3)C(=O)N(C)CC(=O)N[C@@H](CCc3cc(F)c(C(F)(F)F)c(F)c3)C(=O)N2C1 [PP3517] | B (a compound having 3 or more and less than 10 is denoted as B) | 1.8 nM | 55.6 nM | B (a compound having 3 or more and less than 10 is denoted as B) |
| CCC[C@H]1C(=O)N[C@@H]([C@@H](C)CC)C(=O)N(C2CC2)CC(=O)N(C)[C@H]2C/C(F)=C\CCN(C2=O)[C@@H](Cc2ccc(C(F)(F)F)cc2)C(=O)N(C)CC(=O)N[C@@H](CCc2cc(F)c(C(F)(F)F)c(F)c2)C(=O)N2C[C@H](OCC)C[C@H]2C(=O)NC2(CCC2)C(=O)N(C)[C@@H](C2CCCC2)C(=O)N(C)[C@H](C(=O)N(C)C)CC(=O)N1C [PP3518] | B (a compound having 3 or more and less than 10 is denoted as B) | 0.64 nM | 19.2 nM | B (a compound having 3 or more and less than 10 is denoted as B) |
| CCC[C@H]1C(=O)N[C@@H]([C@@H](C)CC)C(=O)N(C2CC2)CC(=O)N(C)[C@H]2C/C(F)=C\CCN(C2=O)[C@@H](Cc2ccc(C)cc2)C(=O)N(C)CC(=O)N[C@@H](CCc2cc(F)c(C(F)(F)F)c(F)c2)C(=O)N2C[C@H](OCC)C[C@H]2C(=O)NC2(CCC2)C(=O)N(C)[C@@H](C2CCCC2)C(=O)N(C)[C@H](C(=O)N(C)C)CC(=O)N1C [PP3519] | B (a compound having 3 or more and less than 10 is denoted as B) | 0.87 nM | 22.3 nM | B (a compound having 3 or more and less than 10 is denoted as B) |
| CCC[C@H]1C(=O)N[C@@H]([C@@H](C)CC)C(=O)N2CCC[C@H]2C(=O)N(C)[C@H]2C/C(F)=C\CCN(C2=O)[C@@H](Cc2ccc(C)cc2)C(=O)N(C)CC(=O)N[C@@H](CCc2cc(F)c(C(F)(F)F)c(F)c2)C(=O)N2C[C@H](OCC)C[C@H]2C(=O)NC2(CCC2)C(=O)N(C)[C@@H](C2CCCC2)C(=O)N(C)[C@H](C(=O)N(C)C)CC(=O)N1C [PP3520] | B (a compound having 3 or more and less than 10 is denoted as B) | 1.2 nM | 91.9 nM | B (a compound having 3 or more and less than 10 is denoted as B) |
| CC[C@H](C)[C@@H]1NC(=O)[C@H](CC(C)C)N(C)C(=O)C[C@@H](C(=O)N(C)C)N(C)C(=O)[C@H](C2CCCC2)N(C)C(=O)C2(CCCC2)NC(=O)[C@@H]2CCN2C(=O)[C@H](CCc2cc(F)c(C(F)(F)F)c(F)c2)NC(=O)CN(C)C(=O)[C@H](Cc2ccc(C(F)(F)F)cc2)N2CC/C=C(/F)C[C@@H](C2=O)N(C)C(=O)CN(C)C1=O [PP3521] | B (a compound having 3 or more and less than 10 is denoted as B) | 2.3 nM | 36.6 nM | B (a compound having 3 or more and less than 10 is denoted as B) |
| CC[C@H](C)[C@@H]1NC(=O)[C@H](CC(C)C)N(C)C(=O)C[C@@H](C(=O)N(C)C)N(C)C(=O)[C@H](C2CCCC2)N(C)C(=O)C2(CCCC2)NC(=O)[C@@H]2CCN2C(=O)[C@H](CCc2cc(F)c(C(F)(F)F)c(F)c2)NC(=O)CN(C)C(=O)[C@H](Cc2ccc(C)cc2)N2CC/C=C(/F)C[C@@H](C2=O)N(C)C(=O)CN(C)C1=O [PP3522] | B (a compound having 3 or more and less than 10 is denoted as B) | 2.6 nM | 48.7 nM | B (a compound having 3 or more and less than 10 is denoted as B) |
| CCO[C@@H]1C[C@H]2C(=O)NC(C)(C)C(=O)N(C)[C@@H](C3CCCC3)C(=O)N(C)[C@H](C(=O)N(C)C)CC(=O)N(C)[C@@H](CC(C)C)C(=O)N[C@@H]([C@@H](C)CC)C(=O)N(C)CC(=O)N(C)[C@H]3C/C(F)=C\CCN(C3=O)[C@@H](Cc3ccc(C)cc3)C(=O)N(C)CC(=O)N[C@@H](CCc3cc(F)c(C(F)(F)F)c(F)c3)C(=O)N2C1 [PP3523] | B (a compound having 3 or more and less than 10 is denoted as B) | 0.59 nM | 23.9 nM | B (a compound having 3 or more and less than 10 is denoted as B) |
| CCC[C@H]1C(=O)N[C@@H]([C@@H](C)CC)C(=O)N2CCC[C@H]2C(=O)N(C)[C@H]2C/C(F)=C\CCN(C2=O)[C@@H](Cc2ccc(C)cc2)C(=O)N(C)CC(=O)N[C@@H](CCc2ccc(C(F)(F)F)c(OC)c2)C(=O)N2C[C@H](OCC)C[C@H]2C(=O)N(C)C2(CCC2)C(=O)N(C)[C@@H](C2CCCC2)C(=O)N(C)[C@H](C(=O)N(C)C)CC(=O)N1C [PP3524] | B (a compound having 3 or more and less than 10 is denoted as B) | 0.24 nM | 6.9 nM | B (a compound having 3 or more and less than 10 is denoted as B) |
| CCC[C@H]1C(=O)N[C@@H]([C@@H](C)CC)C(=O)N(C2CC2)CC(=O)N(C)[C@H]2C/C(F)=C\CCN(C2=O)[C@@H](Cc2ccc(C)cc2)C(=O)N(C)CC(=O)N[C@@H](CCc2ccc(C(F)(F)F)c(OC)c2)C(=O)N2C[C@H](OCC)C[C@H]2C(=O)N(C)C2(CCC2)C(=O)N(C)[C@@H](C2CCCC2)C(=O)N(C)[C@H](C(=O)N(C)C)CC(=O)N1C [PP3525] | B (a compound having 3 or more and less than 10 is denoted as B) | 0.22 nM | 3.4 nM | B (a compound having 3 or more and less than 10 is denoted as B) |
| CCC[C@H]1C(=O)N[C@@H]([C@@H](C)CC)C(=O)N2CCC[C@H]2C(=O)N(C)[C@H]2C/C(F)=C\CCN(C2=O)[C@@H](Cc2ccc(C)cc2)C(=O)N(C)CC(=O)N[C@@H](CCc2cc(F)c(C(F)(F)F)c(F)c2)C(=O)N2C[C@H](OCC)C[C@H]2C(=O)N(C)C2(CCC2)C(=O)N(C)[C@@H](C2CCCC2)C(=O)N(C)[C@H](C(=O)N(C)C)CC(=O)N1C [PP3526] | B (a compound having 3 or more and less than 10 is denoted as B) | 0.29 nM | 10.9 nM | B (a compound having 3 or more and less than 10 is denoted as B) |
| CCC[C@H]1C(=O)N[C@@H]([C@@H](C)CC)C(=O)N(C2CC2)CC(=O)N(C)[C@H]2C/C(F)=C\CCN(C2=O)[C@@H](Cc2ccc(C)cc2)C(=O)N(C)CC(=O)N[C@@H](CCc2cc(F)c(C(F)(F)F)c(F)c2)C(=O)N2C[C@H](OCC)C[C@H]2C(=O)N(C)C2(CCC2)C(=O)N(C)[C@@H](C2CCCC2)C(=O)N(C)[C@H](C(=O)N(C)C)CC(=O)N1C [PP3527] | B (a compound having 3 or more and less than 10 is denoted as B) | 0.38 nM | 7.2 nM | B (a compound having 3 or more and less than 10 is denoted as B) |
| CCC[C@H]1C(=O)N[C@@H]([C@@H](C)CC)C(=O)N(C)CC(=O)N(C)[C@H]2C/C(F)=C\CCN(C2=O)[C@@H](Cc2ccc(C)cc2)C(=O)N(C)CC(=O)N[C@@H](CCc2cc(F)c(C(F)(F)F)c(F)c2)C(=O)N2C[C@H](OCC)C[C@H]2C(=O)N(C)C2(CCC2)C(=O)N(C)[C@@H](C2CCCC2)C(=O)N(C)[C@H](C(=O)N(C)C)CC(=O)N1C [PP3528] | B (a compound having 3 or more and less than 10 is denoted as B) | 0.062 nM | 3.7 nM | B (a compound having 3 or more and less than 10 is denoted as B) |
| CCC[C@H]1C(=O)N[C@@H]([C@@H](C)CC)C(=O)N2CC[C@H]2C(=O)N(C)[C@H]2C/C(F)=C\CCN(C2=O)[C@@H](Cc2ccc(C(F)(F)F)cc2)C(=O)N(C)CC(=O)N[C@@H](CCc2ccc(C(F)(F)F)c(OC)c2)C(=O)N2C[C@H](OCC)C[C@H]2C(=O)N(C)C2(CCC2)C(=O)N(C)[C@@H](C2CCCC2)C(=O)N(C)[C@H](C(=O)N(C)C)CC(=O)N1C [PP3529] | B (a compound having 3 or more and less than 10 is denoted as B) | 0.11 nM | 7.1 nM | B (a compound having 3 or more and less than 10 is denoted as B) |
| CCC[C@H]1C(=O)N[C@@H]([C@@H](C)CC)C(=O)N2CC[C@H]2C(=O)N(C)[C@H]2C/C(F)=C\CCN(C2=O)[C@@H](Cc2ccc(C)cc2)C(=O)N(C)CC(=O)N[C@@H](CCc2ccc(C(F)(F)F)c(OC)c2)C(=O)N2C[C@H](OCC)C[C@H]2C(=O)N(C)C2(CCC2)C(=O)N(C)[C@@H](C2CCCC2)C(=O)N(C)[C@H](C(=O)N(C)C)CC(=O)N1C [PP3530] | B (a compound having 3 or more and less than 10 is denoted as B) | 0.14 nM | 6.8 nM | B (a compound having 3 or more and less than 10 is denoted as B) |
